In PubChem BioAssay AID1963845 (Molecular Pharmacology Branch, DTP, NCI, 2024):

Test system: 429239-143-T-J1-PDC complex spheroid viability
Experiment: Anticancer human tumor 429239-143-T-J1-PDC patient-derived small cell lung carcinoma cell line growth inhibition [POLQ]
Settings: for IC50: curve of first compound; for viability, T/C: stronger effect = lower value; active = viability on the fitted dose curve at most 10% of control; inactive = the rest
In short: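 Patient-derived tumour cells were co-cultured with HUVEC and mesenchymal stem cells as multicellular spheroids at 37 °C. They were treated with POLQ inhibitors (novobiocin, ART-558, RP6685) alone or combined with other agents. Top concentrations were at or near clinical Cmax (otherwise 10 microM; SN-38 at 1 microM), decreasing in half-log steps.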

[1] = second compound 0.0316 µM, first compound 0.0316 µM
[2] = second compound 0.0316 µM, first compound 0.1 µM
[3] = second compound 0.0316 µM, first compound 0.316 µM
[4] = second compound 0.0316 µM, first compound 1 µM
[5] = second compound 0.0316 µM, first compound 3.16 µM
[6] = second compound 0.0316 µM, first compound 10 µM
[7] = second compound 0.1 µM, first compound 0.0316 µM
[8] = second compound 0.1 µM, first compound 0.1 µM
[9] = second compound 0.1 µM, first compound 0.316 µM
[10] = second compound 0.1 µM, first compound 1 µM
[11] = second compound 0.1 µM, first compound 3.16 µM
[12] = second compound 0.1 µM, first compound 10 µM
[13] = second compound 0.316 µM, first compound 0.0316 µM
[14] = second compound 0.316 µM, first compound 0.1 µM
[15] = second compound 0.316 µM, first compound 0.316 µM
[16] = second compound 0.316 µM, first compound 1 µM
[17] = second compound 0.316 µM, first compound 3.16 µM
[18] = second compound 0.316 µM, first compound 10 µM
[19] = second compound 1 µM, first compound 0.0316 µM
[20] = second compound 1 µM, first compound 0.1 µM
[21] = second compound 1 µM, first compound 0.316 µM
[22] = second compound 1 µM, first compound 1 µM
[23] = second compound 1 µM, first compound 3.16 µM
[24] = second compound 1 µM, first compound 10 µM
[25] = second compound 3.16 µM, first compound 0.0316 µM
[26] = second compound 3.16 µM, first compound 0.1 µM
[27] = second compound 3.16 µM, first compound 0.316 µM
[28] = second compound 3.16 µM, first compound 1 µM
[29] = second compound 3.16 µM, first compound 3.16 µM
[30] = second compound 3.16 µM, first compound 10 µM
[31] = second compound 10 µM, first compound 0.0316 µM
[32] = second compound 10 µM, first compound 0.1 µM
[33] = second compound 10 µM, first compound 0.316 µM
[34] = second compound 10 µM, first compound 1 µM
[35] = second compound 10 µM, first compound 3.16 µM
[36] = second compound 10 µM, first compound 10 µM
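Also: luminescence signal used as surrogate measure of viable cells; spheroids exposed to compounds for seven days before readout.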
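For viability, T/C in this document: 100% = DMSO vehicle control viability as luminescence relative to vehicle.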

CC1COCCN1c1cc(C2(O)CC3CCC(C2)O3)c2cnn(-c3ccn[nH]3)c2n1 (stereo unspecified) + Cc1cccc(N(C)C(=O)C2C(O)CCN2c2nc(C)cc(C(F)(F)F)c2C#N)c1
0.0672 µM: IC50 (second compound 0.0316 µM)
0.071 µM: IC50 (second compound 1 µM)
active: viability, T/C [4] 10.3% | viability, T/C [5] 7.41% | viability, T/C [6] 5.4% | viability, T/C [11] 7.54% | viability, T/C [12] 5.93% | viability, T/C [16] 9.23% | viability, T/C [17] 9.02% | viability, T/C [18] 5.86% | viability, T/C [22] 9.58% | viability, T/C [23] 8.48% | viability, T/C [24] 5.82% | viability, T/C [29] 8.26% | viability, T/C [30] 6.08% | viability, T/C [35] 9.19% | viability, T/C [36] 5.28%
0.063 µM: IC50 (second compound 10 µM)
inactive: viability, T/C [1] 76.8% | viability, T/C [2] 35.8% | viability, T/C [3] 17.6% | viability, T/C [7] 69.6% | viability, T/C [8] 39.6% | viability, T/C [9] 19.3% | viability, T/C [10] 11.8% | viability, T/C [13] 62.1% | viability, T/C [14] 41.3% | viability, T/C [15] 16.2% | viability, T/C [19] 73.8% | viability, T/C [20] 40% | viability, T/C [21] 17.7% | viability, T/C [25] 60.1% | viability, T/C [26] 31.8% | viability, T/C [27] 17.9% | viability, T/C [28] 10.3% | viability, T/C [31] 63% | viability, T/C [32] 41.5% | viability, T/C [33] 18.5% | viability, T/C [34] 10.8%
0.0668 µM: IC50 (second compound 0.1 µM)
0.0478 µM: IC50 (second compound 3.16 µM)
0.0617 µM: IC50 (second compound 0.316 µM)

CCc1cc2c(N3CCc4c(cc(Cn5ccnc5)cc4-c4cn(C)nc4C(F)(F)F)C3=O)cc(C)nc2c(OC)n1 + Cc1cccc(N(C)C(=O)C2C(O)CCN2c2nc(C)cc(C(F)(F)F)c2C#N)c1
4.71 µM: IC50 (second compound 10 µM)
inactive: viability, T/C [1] 110% | viability, T/C [2] 97.7% | viability, T/C [3] 95% | viability, T/C [4] 85.6% | viability, T/C [5] 72.7% | viability, T/C [6] 48.5% | viability, T/C [7] 104% | viability, T/C [8] 104% | viability, T/C [9] 87.6% | viability, T/C [10] 79% | viability, T/C [11] 74.5% | viability, T/C [12] 49.8% | viability, T/C [13] 104% | viability, T/C [14] 99.6% | viability, T/C [15] 92.3% | viability, T/C [16] 78.2% | viability, T/C [17] 78.8% | viability, T/C [18] 42.5% | viability, T/C [19] 108% | viability, T/C [20] 96.1% | viability, T/C [21] 91.8% | viability, T/C [22] 85% | viability, T/C [23] 74.3% | viability, T/C [24] 44.1% | viability, T/C [25] 105% | viability, T/C [26] 101% | viability, T/C [27] 91.6% | viability, T/C [28] 90.6% | viability, T/C [29] 77.5% | viability, T/C [30] 54.6% | viability, T/C [31] 108% | viability, T/C [32] 98.9% | viability, T/C [33] 85.3% | viability, T/C [34] 82.5% | viability, T/C [35] 63.3% | viability, T/C [36] 28.6%
8.03 µM: IC50 (second compound 0.316 µM)
> 10 µM: IC50 (second compound 0.0316 µM) | IC50 (second compound 0.1 µM) | IC50 (second compound 3.16 µM)
8.37 µM: IC50 (second compound 1 µM)

C=CCn1c(=O)c2cnc(Nc3ccc(N4CCN(C)CC4)cc3)nc2n1-c1cccc(C(C)(C)O)n1 + COC1C(OC(N)=O)C(O)C(Oc2ccc3c(O)c(NC(=O)c4ccc(O)c(CC=C(C)C)c4)c(=O)oc3c2C)OC1(C)C
0.464 µM: IC50 (second compound 0.1 µM)
0.591 µM: IC50 (second compound 0.316 µM)
inactive: viability, T/C (second compound 0.0316 µM, first compound 0.00316 µM) 105% | viability, T/C (second compound 0.0316 µM, first compound 0.01 µM) 93% | viability, T/C [1] 104% | viability, T/C [2] 104% | viability, T/C [3] 85.7% | viability, T/C [4] 17.1% | viability, T/C (second compound 0.1 µM, first compound 0.00316 µM) 92% | viability, T/C (second compound 0.1 µM, first compound 0.01 µM) 104% | viability, T/C [7] 92.6% | viability, T/C [8] 105% | viability, T/C [9] 66% | viability, T/C [10] 17.8% | viability, T/C (second compound 0.316 µM, first compound 0.00316 µM) 110% | viability, T/C (second compound 0.316 µM, first compound 0.01 µM) 88.2% | viability, T/C [13] 107% | viability, T/C [14] 118% | viability, T/C [15] 82.5% | viability, T/C [16] 22.7% | viability, T/C (second compound 1 µM, first compound 0.00316 µM) 95.3% | viability, T/C (second compound 1 µM, first compound 0.01 µM) 83.5% | viability, T/C [19] 101% | viability, T/C [20] 88.7% | viability, T/C [21] 82.2% | viability, T/C [22] 21% | viability, T/C (second compound 3.16 µM, first compound 0.00316 µM) 98.8% | viability, T/C (second compound 3.16 µM, first compound 0.01 µM) 90% | viability, T/C [25] 94.2% | viability, T/C [26] 96.3% | viability, T/C [27] 97.1% | viability, T/C [28] 20% | viability, T/C (second compound 10 µM, first compound 0.00316 µM) 91.7% | viability, T/C (second compound 10 µM, first compound 0.01 µM) 83.2% | viability, T/C [31] 85.1% | viability, T/C [32] 83.7% | viability, T/C [33] 84% | viability, T/C [34] 22.8%
0.58 µM: IC50 (second compound 1 µM)
0.632 µM: IC50 (second compound 3.16 µM)
0.6 µM: IC50 (second compound 10 µM)
0.576 µM: IC50 (second compound 0.0316 µM)
